This note sets out measurements from a melting point compilation (Tetko et al.; mined from patent text by program, amines drawn as free bases though some values may be those of a salt).

One may read the melting point as the temperature, or range, at which the solid turns liquid.

The molecule `CCOC(=O)c1ccc(C#C[Si](C)(C)C)nc1` yielded a melting point of 55 °C. Next, `CC(C)(C)[Si](C)(C)Oc1cccc(C2(Br)C(=O)NC(=O)NC2=O)c1`: 170 to 172 °C. Next, `COC(=O)Cn1c(=O)c(=O)[nH]c2cc(N)c(Cl)cc21`: above 260 °C; `CC(C)(C)c1cc(C(=O)Nc2ccc(N)cc2)cc(C(C)(C)C)c1O`: 220 to 221 °C. Next, `CSc1cc(C)nc(SC)c1NC(=O)CCN1CCN(CCSc2nc3ccccc3o2)CC1`: 110 to 112 °C; `CC(CC(=O)O)C(=O)c1ccc2c(c1)OCC(=O)N2` (stereo not given): 170 to 172 °C; `O=C(O)Cc1ccc(Oc2cccc(C(F)(F)F)c2)cc1`: 61 to 63 °C.

Turning to `CON(C)C(=O)c1cc(Br)cc([N+](=O)[O-])c1N`, the melting point came to 129 °C. Molecule `O=C1CN(c2ccc(Cl)cc2)C(=O)N1C(=O)c1c(Cl)cccc1Cl` registered a melting point of 176 to 180 °C. With `CC1(C)CCc2cc(C(=O)c3ccc4cc(C(=O)O)ccc4c3)ccc2O1`, the melting point was determined as 269 °C. With `COc1cc2c(cc1Nc1ncc(Cl)c(Nc3cc(C(N)=O)ccc3OC)n1)CCN(CC(=O)N(C)C)CC2` the figure was 163 to 174 °C; with `CC(NC(=O)c1sc2ccc(C(F)(F)F)cc2c1O)=C(c1ccccc1)c1ccccc1`, 155 to 160 °C; with `COC(=O)c1ccc(-c2nc(-c3ccccc3C(F)(F)F)cs2)cc1`, 122 to 123 °C. On to `COc1ccc(CNC(=O)C23CC4CC(CC(C4)C2)C3)cc1OC`, for which the melting point was 120 to 122 °C. In turn, `CCOC(=O)N(Cc1ccc(F)cc1)c1ccc(C(=O)OC)cc1` returned a melting point of 83 to 84 °C.

Molecule `CC1(COc2ccc([N+](=O)[O-])cc2)CC(=O)c2cc(O)c(C(C)(C)C)cc2O1` (stereo not given) registered a melting point of 205 to 209 °C. `CCCC1=C(C(=O)OCC)C(c2cc(OC)ccc2OC)c2c[nH]nc2N1` (stereo not given) came in with a melting point of 169 to 170 °C.

Turning to `CC(C)(C)c1cc(-c2ccc([N+](=O)[O-])cc2)cc(C(C)(C)C)c1O`, the melting point lay in the range of 157 to 160 °C.

In turn, `COc1ccc(C(=O)Nc2ccccc2)cc1NS(=O)(=O)c1ccc(F)cc1F` registered a melting point of 198 to 200 °C. With `CCc1c(C)c(NC(=O)NCCO)c(C)c2c1OCC2c1ccc(C(C)C)cc1` (stereo not given) the figure was 147 to 148 °C. The molecule `O=C1NCN(c2ccc(F)cc2)C12CCN(CCCN(c1ccc(F)cc1)c1ccc(F)cc1)CC2` gave a melting point of 162 to 163 °C. Turning to `C[C@@H]1O[C@@]1(Cn1cncn1)c1ccc(F)cc1F` (racemic), the melting point lay within 66 to 68 °C. With `O=C(O)C(=O)c1ccc(OCCOc2ccccc2)cc1` the figure was 102 to 103 °C.

For `CCCCCNC(CCCCC)=C1C(=O)ON=C1C`, the melting point was 36 °C. The molecule `COc1cccc2c1C1CN(C)CCN1c1ccccc1C2O` (stereo not given) yielded a melting point of 217 °C. For the molecule `CCCCn1nc(C(C)=O)nc1Cc1ccc(-c2ccccc2-c2nnn[nH]2)nc1`, the melting point was in the range of 157 to 159 °C. Turning to `OCCCc1cc(Cl)cc2nc(Cc3ccccc3Cl)oc12`, the melting point is 87 to 89 °C. `CCCN1C(=O)c2cscc2Nc2ccccc21` gave a melting point of 166 to 167 °C. For `CCCCOC(=O)CN1CCC(NC(=O)OC(C)(C)C)CC1`, the melting point was 116 °C. Molecule `COc1ccc(N=C(NC(=S)NCc2cccnc2)c2ccccc2)cc1` returned a melting point of 142 to 143 °C.

Turning to `CCC(=O)NN=C(Nc1ccc([N+](=O)[O-])cc1)c1ccc(OC)cc1`, the melting point came out at 200 °C.

`CC(=O)CCC(=O)c1ccc(S(C)(=O)=O)cc1` gave a melting point of 132 to 133 °C. Next, `c1ccc(NC2(c3ccccc3)N=C(c3ccccc3)N=C2c2ccccc2)cc1` (stereo not given): 157 °C; `COc1ccc2c(c1)C(C)(CC(=O)O)C(=O)N2C` (stereo not given): 120 to 121 °C. With `COc1cc(C(C)=O)ccc1OCCCN1CCC(c2n[nH]c3cc(F)ccc23)CC1` the figure was 202 to 204 °C; with `COc1cc(-c2nc3ccccc3n2Cc2ccccc2I)cc(OC)c1OC`, 179 °C; with `CC(C)(C)C1=CC=CC(c2ccccc2Cl)(C(C)(C)C)C1O` (stereo not given), 89.5 to 91 °C. Consider `Cc1cccc(NC(=O)NCC(=O)N(CC(=O)OC(C)(C)C)c2ccccc2C(=O)N(C)c2ccccc2)c1`, for which the melting point came out at 145 °C.

Molecule `C=CCCCCCCCCOC(=O)C=Cc1ccccc1O` returned a melting point of 58 °C. Next, `COc1cccc(-c2nc(-c3ccccc3COC(=O)c3ccccc3)n[nH]2)c1`: 128 to 130 °C; `CC(C)c1ccc2ncn(/C=C/C(=O)NCCNCc3ccccn3)c(=O)c2c1`: 91 to 95 °C; `O=C(O)CCCC(=O)N[C@@H](Cc1ccccc1)C(=O)NCCCCNc1ncccn1`: 186 °C. Next, `COc1cccc(Oc2cccnc2C#N)c1`: 112 to 114 °C; `CCCn1c(=O)c2[nH]c(/C=C/c3ccc(OC)c(C)c3OC)nc2n(CCC)c1=O`: 255 to 256 °C; `O=c1c2cc3ncn(CCc4cccc(F)c4)c(=O)c3cc2ncn1CCc1cccc(F)c1`: 250 to 251 °C. For the molecule `O=[N+]([O-])c1ccc(Cl)c(C=NNc2c(Cl)cc(Cl)cc2Cl)c1`, the melting point lay in the range of 113 to 116 °C. `CCCCCCCCc1cc2cc(O)ccc2c(Oc2ccc(/C=C/C(=O)O)cc2)c1-c1ccccc1` yielded a melting point of 163 to 164 °C. With `Cc1ccc(S(=O)(=O)Nc2ccc(C#N)cc2)cc1`, the melting point is 182 to 184 °C.

`CCOC(=O)N1C(=O)N(C(=O)OCC)C2(C1=O)C(=O)N(Cc1ccc(Cl)c(Cl)c1)c1ccccc12` (stereo not given): the melting point lay in the range of 180 to 182 °C. Next, `Nc1ccn(C2CC(O)C(CO)O2)c(=O)n1` (stereo not given): 208 to 210 °C.

Molecule `O=C(Nc1ccccc1C(=O)O)c1nnc(S)o1` had a melting point of 236 to 237 °C. In turn, `CC(Oc1ccc(Oc2ncc(Cl)cc2F)cc1)C(=O)NC=C(C#N)C#N` (stereo not given) gave a melting point of 129 to 131 °C. With `CC1c2cccc3c2N(CC3)c2ccccc2N1C(=O)CCCCl` (stereo not given) the figure was 88 to 90 °C; with `O=S1(=O)c2cccc3cccc(c23)N1CCCCN1CC=C(c2ccc(Cl)cc2)CC1`, 12 °C. Next, `CCCCC(=O)c1sc(Oc2ccc3c(c2)OCO3)c2c1CCc1cnn(C)c1-2`: 101 to 102 °C; `CC(Oc1ccc(Oc2ccc3cc(Cl)ccc3n2)cc1)C(=O)Nc1ccc(C(F)(F)F)cc1` (stereo not given): 142 to 146 °C; `CCCCCCCCCCCCSCC(CO)NC(=O)CCCCCCCCCC` (stereo not given): 64 to 67 °C. With `Cc1ccc(C)n1CCN1CCCC1=O` the figure was 66 to 68 °C.

In turn, `NC(=NCC(F)(F)F)Nc1ccnc(OCCCO)n1` gave a melting point of 118 to 120 °C.

`CNC(=C[N+](=O)[O-])NCCSCc1cc(CN2CCCC2)cs1` showed a melting point of 109 to 111 °C. Next, `CC(C)c1cc(-c2ccc3c(c2)OCO3)nc2[nH]nc(N)c12`: 184 to 186 °C; `CC1N=C(c2ccccc2)OC(c2ccccc2)C1OC(=O)Nc1ccccc1` (stereo not given): 150 °C.

The molecule `CSc1ccc(C(=O)CCC#N)cc1` showed a melting point of 122 to 124 °C.

Molecule `CCCCCCOc1cc(C(=O)O)cc([N+](=O)[O-])c1C(=O)c1ccccc1` had a melting point of 165 to 166 °C. With `CC(C)CCSC1C(O)C(CO)OC1n1ccc(=O)[nH]c1=O` (stereo not given) the figure was 66 to 67 °C. In turn, `Cc1nc(CO)c2n1-c1ccc(Cl)cc1C(c1ccccc1Cl)=NC2` displayed a melting point of 215 to 217 °C. With `COCCOc1ccc(/C=C/C(=O)NS(=O)(=O)c2ccc(Cl)cc2)c(Oc2ncc(C(F)(F)F)cc2Cl)c1` the figure was 182 °C. Turning to `Cc1nc(Nc2ccc(Cl)cc2)sc1C(=O)O`, the melting point was above 250 °C. Next, `CCCCCCCCCCCCCCCCCCNC(=O)OCC(CNS(=O)(=O)CCCCl)n1nnnc1C` (stereo not given): 74 to 77 °C; `COc1ccc2oc(Cc3cccc(F)c3)c(CC#N)c2c1`: 67 °C; `COc1c(CC(=O)O)cccc1Oc1ccccc1C`: 90 to 92 °C. As to `CC(=O)N1CCC(Nc2ncc3cc(-c4ccccc4C)c(=O)n(C4CCOCC4)c3n2)CC1`, the melting point was in the range of 235 to 237 °C. With `O=C(O)CCCCCc1ccc2ccccc2n1` the figure was 105 to 108 °C; with `COc1ccc(C2CSc3ccccc3N(CCO)C2=O)cc1` (stereo not given), 133 °C; with `Cc1cc(C)n(-c2nc(Nc3ccc(Cl)cc3)cnc2CN)n1`, 173 to 176 °C. With `CNc1ccc2n[nH]c(=O)n2n1` the figure was above 348 °C; with `CC(C)NS(=O)(=O)NC(C)C`, 98 to 101 °C. As for `CCCCc1c(/C=C/C(=O)O)cc(OC)c2ccccc12`, the melting point lay in the range of 166 to 167 °C. With `CCOC(=O)NCC1CO1` (stereo not given) the figure was 75 to 78 °C; with `O=C(NCCCCl)Nc1c(Cl)cccc1C(=O)O`, 124 to 125 °C. With `CC(C)(C)OC(=O)N1CCCC2(CCN(c3ccc4nc(-c5ccc(F)cc5)c(-c5ccnc6[nH]ccc56)n4n3)CC2)C1` the figure was 192 to 193 °C; with `O=C(COc1ccc([N+](=O)[O-])cc1)OCCOC(=O)COc1ccc([N+](=O)[O-])cc1`, 118 to 121 °C. With `CCONS(=O)(=O)c1ccc(C)cc1` the figure was 94 to 95 °C; with `Cc1ccccc1CN(c1ncnc2c1ncn2C1OC(CO)C(O)C1O)C1CCCCC1` (stereo not given), 129 to 130 °C. The molecule `CCOC(=O)c1cc2ccc(C)cc2o1` displayed a melting point of 35 to 42 °C.

In the case of `CCOc1noc2c1CN(C(=O)OC)CC2`, the melting point was 95 to 98 °C. `CCOC(=O)c1c2ccc(CC(=O)NOCCN3CCCCC3)ccc-2c(C(=O)OCC)c1N` came in with a melting point of 163 to 165 °C. Next, `O=c1[nH]cnc2cc(C(c3ccccc3)n3ccnc3)ccc12` (stereo not given): 205 °C; `Cc1c(C)c2c(c(C)c1OCc1ccccc1)CC(CCN1C(=O)c3ccccc3C1=O)O2` (stereo not given): 108 to 110 °C; `CCCCCCOCCOc1ccc(-c2ccc3c(c2)C=C(C(=O)Nc2ccc(CN(C)C4CCOCC4)cc2)CCS3(=O)=O)cc1`: 180 to 182 °C.
